In ChEMBL document CHEMBL3108752, “Iridal-type triterpenoids with neuroprotective activities from Iris tectorum” (2014):

System: PC-12
Test: Neuroprotective activity against serum-deprivation-induced damage in rat PC12 cells assessed as survival rate at 10 uM after 48 hrs by MTT assay relative to control
Assay type: functional
Settings: PC-12, 48 h, read-out: Survival

| SMILES | viability at 10 µM [%] |
| --- | --- |
| CC(C)=CCC/C(=C\[C@H]1C=C(CO)[C@@H]2CC[C@]3([C@H](CCCO)/C(=C(/C)C=O)CC[C@]3(C)O)[C@@H]2O1)CO | 54.1 |
| CC(C)=CCC/C(C)=C/[C@H]1C=C(CO)[C@@H]2CC[C@]3([C@H](CCCO)/C(=C(/C)C=O)CC[C@]3(C)O)[C@@H]2O1 | 63.8 |
| CC(C)=CCC/C(=C\[C@H]1C=C(CO)[C@@H]2CC[C@]3([C@H](CCCO)/C(=C(\C)C=O)CC[C@]3(C)O)[C@@H]2O1)CO | 50.9 |
